Read-outs that look alike come from different tables or passages of the source.
Experiments:
[1] = molecular target: T1, IκBα ubiquitinating enzyme (SCF complex: ROC1, Cullin1, Skp1, His-TrCP1; with E1, UbcH5b) (Homo sapiens, UniProt P62877+P63208+Q13616+Q9Y297); assay: Measurement of ubiquitinating enzyme activity (IκBα ubiquitination, time-resolved fluorescence with Eu(K)-labeled ubiquitin and XL665-labeled anti-GST antibody); format: biochemical
T1 construct: His (polyhistidine); made in house; host or cells: insect cells (baculovirus) for the SCF complex and His-E1; E. coli for His-UBCH5b
T1 sequence (Q9Y297 whole entry): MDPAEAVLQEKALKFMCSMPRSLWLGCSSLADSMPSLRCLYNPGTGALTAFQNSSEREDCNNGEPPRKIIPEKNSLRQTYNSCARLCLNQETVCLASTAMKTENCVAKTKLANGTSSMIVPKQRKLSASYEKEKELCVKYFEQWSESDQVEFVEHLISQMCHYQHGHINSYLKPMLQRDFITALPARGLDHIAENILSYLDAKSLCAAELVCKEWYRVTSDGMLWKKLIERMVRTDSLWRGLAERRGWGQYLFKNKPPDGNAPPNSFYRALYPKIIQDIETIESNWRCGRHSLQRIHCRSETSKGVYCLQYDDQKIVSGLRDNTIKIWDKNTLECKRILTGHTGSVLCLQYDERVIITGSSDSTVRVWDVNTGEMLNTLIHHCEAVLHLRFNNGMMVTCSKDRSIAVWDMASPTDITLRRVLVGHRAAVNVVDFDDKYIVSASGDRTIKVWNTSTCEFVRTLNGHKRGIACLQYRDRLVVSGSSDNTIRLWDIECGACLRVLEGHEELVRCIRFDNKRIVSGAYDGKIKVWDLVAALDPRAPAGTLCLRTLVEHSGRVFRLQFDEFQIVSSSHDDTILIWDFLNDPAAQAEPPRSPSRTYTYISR
T1 sequence (Q13616 whole entry): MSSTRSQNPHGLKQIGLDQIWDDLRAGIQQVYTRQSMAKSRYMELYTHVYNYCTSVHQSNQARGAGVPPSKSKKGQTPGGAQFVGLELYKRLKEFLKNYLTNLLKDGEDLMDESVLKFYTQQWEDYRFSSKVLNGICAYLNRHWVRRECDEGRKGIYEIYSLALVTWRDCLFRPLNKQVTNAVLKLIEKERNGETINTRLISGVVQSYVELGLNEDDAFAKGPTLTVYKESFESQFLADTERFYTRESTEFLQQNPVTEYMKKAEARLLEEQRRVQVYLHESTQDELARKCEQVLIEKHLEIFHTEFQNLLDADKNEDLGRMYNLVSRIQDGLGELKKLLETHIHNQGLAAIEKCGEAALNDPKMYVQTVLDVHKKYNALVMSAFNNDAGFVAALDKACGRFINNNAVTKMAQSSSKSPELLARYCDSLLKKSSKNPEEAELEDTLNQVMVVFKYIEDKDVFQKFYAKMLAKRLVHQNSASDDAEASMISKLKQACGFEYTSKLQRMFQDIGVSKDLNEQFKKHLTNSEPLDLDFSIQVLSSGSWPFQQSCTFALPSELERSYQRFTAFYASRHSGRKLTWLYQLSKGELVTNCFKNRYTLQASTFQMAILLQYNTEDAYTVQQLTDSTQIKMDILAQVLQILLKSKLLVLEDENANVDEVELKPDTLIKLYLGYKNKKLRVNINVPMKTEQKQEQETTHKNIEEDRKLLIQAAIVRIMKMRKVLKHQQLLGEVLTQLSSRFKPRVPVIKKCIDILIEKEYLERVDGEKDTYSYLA
T1 sequence (P63208 whole entry): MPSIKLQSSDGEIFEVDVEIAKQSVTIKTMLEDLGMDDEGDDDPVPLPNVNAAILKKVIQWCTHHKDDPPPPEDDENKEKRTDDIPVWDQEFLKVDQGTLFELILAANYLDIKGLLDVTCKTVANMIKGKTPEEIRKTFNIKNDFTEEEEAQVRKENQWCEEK
T1 sequence (P62877 whole entry): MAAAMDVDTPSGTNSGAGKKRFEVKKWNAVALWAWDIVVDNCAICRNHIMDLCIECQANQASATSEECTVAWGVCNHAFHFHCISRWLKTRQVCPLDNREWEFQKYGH
How it was run: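 Human SCF complex with E1 and UbcH5b ubiquitinated GST-IκBα pre-phosphorylated by IKKβ (2 mM ATP, pH 7.4, 1 h, RT), with Eu(K)-ubiquitin, 30 min RT. Stopped with EDTA, XL665 anti-GST added for 2 h; 665/620 nm TR-FRET ratio. % inhibition versus no-compound control and no-SCF blank gave IC50.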

[2] = system: ICAM-1 expression in HT-29 cells; assay: Measurement of ICAM-1 expressing activity (TNFα-induced ICAM-1 expression, cell ELISA); format: cell-based; conditions: Homo sapiens, Table 6, cell activity inhibition test by method (3), read-out: EVALUATION (IC50 class, inhibition of cell activity)
How it was run: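 HT-29 cells pretreated with compound (0.5% DMSO final) for 30 min at 37°C, then stimulated with 30 ng/mL human TNFα for 4 h. Surface ICAM-1 measured by cell ELISA on methanol-fixed cells: anti-ICAM-1 plus POD secondary, TMBZ substrate, absorbance at 450 nm.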

[3] = enzyme activity inhibition test, method (1), Table 5, read-out: EVALUATION

Structure (SMILES) | IC50 [1, 3] [µM] | IC50 [2] [µM] | IC50 [1] [µM]
CCCCC1=NN(c2ccc(C(=O)O)cc2)C(=O)/C1=C\c1ccc(OCc2ccccc2)c(OC)c1 [Compound 296] | < 10 | < 40 | 
COC(=O)N1CCN(c2ccc(C=C3C(=O)N(c4ccccc4)N=C3C3CC3)cc2)CC1 [Compound 73] |  | < 40 | 10 to 20
CC1=NN(c2ccc(S(N)(=O)=O)cc2)C(=O)/C1=C\c1ccc(NC(=O)/C=C/c2ccccc2)cc1 [Compound 230] | < 10 | < 40 | 
O=C(O)c1cccc(N2N=C(c3ccoc3)/C(=C/c3ccc(-c4cnn(Cc5ccccc5)c4)o3)C2=O)c1 [Compound 490] | < 10 | 10 to 20 | 
COC(=O)N1CCN(c2ccc(C=C3C(=O)N(c4ccc(C(=O)O)cc4)N=C3c3ccoc3)cc2)CC1 [Compound 245] |  | 10 to 20 | < 10
CC1=NN(c2ccc(C(=O)O)cc2)C(=O)C1=Cc1ccc(OCCCN(C)C)cc1 [Compound 543] |  | < 10 | < 10
CC1=NN(c2ccc(C(=O)N(C)CCO)cc2)C(=O)/C1=C\c1ccc2c(c1)OCCO2 [Compound 412] | 10 to 20 | 10 to 20 | 
CC1=NN(c2cccc(C(=O)O)c2)C(=O)/C1=C\c1ccc(N2CCN(C(=O)c3ccccc3)CC2)cc1 [Compound 440] | < 10 | 10 to 20 | 
CCCCC1=NN(c2cccc(C(=O)O)c2)C(=O)/C1=C\c1ccc2[nH]ccc2c1 [Compound 481] | < 10 | < 40 | 
COCC1=NN(c2ccc(C(=O)O)cc2)C(=O)/C1=C\c1ccc2c(c1)OCO2 [Compound 464] | 10 to 20 | < 40 | 
CC1=NN(c2ccc(C(=O)O)cc2)C(=O)/C1=C\c1ccc2c(c1)OCCO2 [Compound 259] | < 10 | < 10 | 
O=C(O)c1ccc(N2N=C(c3ccccn3)/C(=C/c3ccc(N4CCCC4)cc3)C2=O)cc1 [Compound 291] | 10 to 20 | 10 to 20 | 
O=C(O)c1ccc(N2N=C(c3ccoc3)/C(=C/c3ccc(-n4cncn4)cc3)C2=O)cc1 [Compound 252] | < 10 | < 40 | 
O=C(O)c1ccc(N2N=C(c3cccnc3)/C(=C/c3ccc(CO)o3)C2=O)cc1 [Compound 308] | < 10 | < 40 | 
CC1=NN(c2ccc(S(N)(=O)=O)cc2)C(=O)/C1=C\c1ccc(C(C)(C)C)cc1 [Compound 115] | < 10 | 10 to 20 | 
CC1=NN(c2ccc(C(=O)O)cc2)C(=O)/C1=C\c1ccc(OCC(=O)N2CCOCC2)cc1 [Compound 538] | < 10 | < 40 | 
CC1=NN(c2cccc(C(=O)O)c2)C(=O)/C1=C\c1ccc2c(ccn2C(=O)C2CC2)c1 [Compound 530] | < 10 | < 40 | 
O=C(O)c1ccc(N2N=C(c3ccncc3)/C(=C/c3ccc(N4CCCC4)cc3)C2=O)cc1 [Compound 287] | < 10 | 10 to 20 | 
CC1=NN(c2ccc(C(=O)O)cc2)C(=O)C1=Cc1ccc(N2CCN(c3ccccc3)CC2)cc1 [Compound 430] |  | < 10 | < 10
O=C1/C(=C\c2ccc3c(c2)OCCO3)C(C2CC2)=NN1c1ccccc1 [Compound 77] | < 10 | < 40 | 

Structure (SMILES) | IC50 [1, 3] [µM] | IC50 [2] [µM] | IC50 [1] [µM]
CC1=NN(c2cccc(C(=O)O)c2)C(=O)/C1=C\c1ccc([N+](=O)[O-])o1 [Compound 425] | < 10 | 10 to 20 | 
CC1=NN(c2cccc(C(=O)O)c2)C(=O)/C1=C\c1ccc2c(ccn2CC2CC2)c1 [Compound 499] | < 10 | < 40 | 
CCOC(=O)c1ccccc1-c1ccc(/C=C2\C(=O)N(c3ccc(C(=O)O)cc3)N=C2C)o1 [Compound 527] | < 10 | < 10 | 
COCC1=NN(c2ccc(C(=O)O)cc2)C(=O)/C1=C\c1ccc(-n2cccn2)cc1 [Compound 242] | < 10 | 10 to 20 | 
CC1=NN(c2ccc(S(N)(=O)=O)cc2)C(=O)/C1=C\c1ccc2cc[nH]c2c1 [Compound 148] | < 10 | < 40 | 
O=C1/C(=C\c2ccc3c(c2)OCCO3)C(Cc2ccccc2)=NN1c1ccccc1 [Compound 29] | 10 to 20 | 10 to 20 | 
O=C(O)c1ccc(N2N=C(Cc3ccccc3)/C(=C/c3ccc(CO)o3)C2=O)cc1 [Compound 268] | 10 to 20 | < 40 | 
COc1cc(/C=C2\C(=O)N(c3ccccc3)N=C2c2ccoc2)ccc1OCc1ccccc1 [Compound 94] | < 10 | < 40 | 
O=C1/C(=C\c2ccc(CO)o2)C(c2ccoc2)=NN1c1ccccc1 [Compound 16] | < 10 | 10 to 20 | 
COCC1=NN(c2ccc(C(=O)O)cc2)C(=O)/C1=C\c1ccc(-n2cncn2)cc1 [Compound 243] | < 10 | < 10 | 
CCCCC1=NN(c2ccc(C(=O)O)cc2)C(=O)/C1=C\c1ccc(N2CCN(C)CC2)cc1 [Compound 340] | < 10 | 10 to 20 | 
CC1=NN(c2ccc(C(=O)O)cc2)C(=O)/C1=C\c1ccc(N2CCCC2)cc1 [Compound 256] | 10 to 20 | < 40 | 
COC(=O)N1CCN(c2ccc(/C=C3\C(=O)N(c4ccc(C(=O)O)cc4)N=C3c3ccc(OC)c(OC)c3)cc2)CC1 [Compound 279] | < 10 | 10 to 20 | 
O=C(O)c1ccc(N2N=C(C3CC3)/C(=C/c3ccc(-n4cncn4)cc3)C2=O)cc1 [Compound 323] | < 10 | < 40 | 
CC(=O)N1CCN(c2ccc(/C=C3\C(=O)N(c4cccc(C(=O)O)c4)N=C3C)cc2)CC1 [Compound 442] | < 10 | < 40 | 
CC1=NN(c2ccc(C(=O)O)cc2)C(=O)/C1=C\c1ccc(N2CCCCC2)cc1 [Compound 350] | < 10 | < 40 | 
COc1ccccc1-c1ccc(/C=C2\C(=O)N(c3ccc(C(=O)O)cc3)N=C2c2ccoc2)o1 [Compound 483] | < 10 | 10 to 20 | 
COCC1=NN(c2ccc(C(=O)O)cc2)C(=O)/C1=C\c1ccc2ccccc2c1 [Compound 233] | < 10 | < 10 | 
CCCNC(=O)COc1ccc(C=C2C(=O)N(c3ccccc3)N=C2C)cc1 [Compound 204] |  | 10 to 20 | 10 to 20
Cn1cc(-c2ccc(/C=C3\C(=O)N(c4cccc(C(=O)O)c4)N=C3c3ccoc3)o2)cn1 [Compound 491] | < 10 | 10 to 20 | 

Structure (SMILES) | IC50 [1, 3] [µM] | IC50 [2] [µM] | IC50 [1] [µM]
O=C(O)c1ccc(N2N=C(c3ccccn3)/C(=C/c3ccc(-c4ccccc4F)o3)C2=O)cc1 [Compound 290] | < 10 | 10 to 20 | 
CC1=NN(c2cccc(C(=O)N3CCCC3CO)c2)C(=O)/C1=C\c1ccc2[nH]ccc2c1 (centres unmarked) [Compound 372] | < 10 | 10 to 20 | 
O=C(O)c1cccc(N2N=C(c3ccoc3)/C(=C/c3ccc(-c4ccccc4F)o3)C2=O)c1 [Compound 484] | < 10 | 10 to 20 | 
CC1=NN(c2ccc(C(=O)O)cc2)C(=O)/C1=C\c1ccc(OCC(N)=O)cc1 [Compound 536] | < 10 | 10 to 20 | 
COc1cccc(-c2ccc(/C=C3\C(=O)N(c4cccc(C(=O)O)c4)N=C3C)o2)c1 [Compound 503] | 10 to 20 | < 10 | 
COc1cc(/C=C2\C(=O)N(c3cccc(C(=O)O)c3)N=C2C)ccc1OCC1CCCCC1 [Compound 407] | 10 to 20 | < 40 | 
O=C(O)c1ccc(N2N=C(c3ccoc3)/C(=C/c3ccc(-n4ccnc4)cc3)C2=O)cc1 [Compound 250] | < 10 | < 40 | 
CCCCC1=NN(c2cccc(C(=O)O)c2)C(=O)/C1=C\c1ccc2c(c1)OCO2 [Compound 473] | 10 to 20 | < 40 | 
CC1=NN(c2ccc(S(N)(=O)=O)cc2)C(=O)/C1=C\c1ccc(-n2cccn2)cc1 [Compound 150] | < 10 | < 10 | 
COc1cc(/C=C2\C(=O)N(c3ccccc3)N=C2C)ccc1OCC(=O)OC(C)(C)C [Compound 125] | 10 to 20 | < 40 | 
COc1ccc(C2=NN(c3ccc(C(=O)O)cc3)C(=O)C2=Cc2ccc(O)c(OC)c2)cc1 [Compound 324] |  | < 10 | < 10
COc1ccccc1-c1ccc(/C=C2\C(=O)N(c3cccc(C(=O)O)c3)N=C2c2ccoc2)o1 [Compound 485] | < 10 | < 40 | 
COC(=O)N1CCN(c2ccc(C=C3C(=O)N(c4ccccc4)N=C3Cc3ccccc3)cc2)CC1 [Compound 25] |  | < 40 | 10 to 20
CC1=NN(c2ccc(C(=O)O)cc2)C(=O)/C1=C\c1ccc(-n2cncn2)cc1 [Compound 262] | < 10 | 10 to 20 | 
COC(=O)N1CCN(c2ccc(C=C3C(=O)N(c4ccccc4)N=C3c3ccc(OC)c(OC)c3)cc2)CC1 [Compound 33] |  | < 40 | 10 to 20
COc1cc(C=C2C(=O)N(Cc3ccccc3)N=C2C)ccc1O [Compound 201] |  | 10 to 20 | < 10
COc1cccc(-c2ccc(/C=C3\C(=O)N(c4ccc(C(=O)O)cc4)N=C3C)o2)c1 [Compound 501] | < 10 | < 10 | 
O=C(O)c1ccc(N2N=C(Cc3ccccc3)/C(=C/c3ccc(-c4ccccc4F)o3)C2=O)cc1 [Compound 267, 4-{3-Benzyl-4-[5-(2-fluorophenyl)-furan-2-ylmethylenc]-5-oxo-4.5-dihydropyrazol-1-yl} benzoic acid] | < 10 | < 10 | 

— patent EP1900728A1 (Genecare Research Institute Co., Ltd, priority 2005, dated 2006)
